According to US11266655B2, “Methods and compositions for treating urea cycle disorders” (Camp4 Therapeutics Corporation, priority 2019, dated 2022):

Experiments:
[1] = tested on: OTC; assay: siRNA knockdown of JAK/STAT/IRF genes in hepatocytes, OTC mRNA; format: cell-based, human; conditions: 10 nM siRNA plus 0.03 nM JAK1 siRNA, FIG. 27C
Description: To confirm that JAK1 inhibition is necessary for OTC and CPS1 gene expression increase, JAK1, JAK2, and JAK3 expression was knocked down using the siRNA methods previously described in Example 1 (JAK1 siRNA Dharmacon #M-003145-02-0005; JAK2 siRNA Dharmacon #M-003146-02-0005; JAK3 siRNA Dharmacon #M-003147-01-0005). The cells were harvest for mRNA collection and quantification as previously described.
In addition, STAT5B is a JAK1 signal transducer and transcription factor activated by JAK1. STAT5B was knocked down in hepatocytes using siRNA (Dharmacon cat #M-010539-02-0005) as previously described in Example 1. The cells were harvest for mRNA collection and quantification as previously described.
To confirm the role of JAK1 and investigate the role of other signaling proteins and transcription factors in OTC and CPS1 expression, a panel of additional genes were knocked down with siRNA alone or in combination with JAK1. In particular, JAK2 was knockdown alone or in combination with JAK1. The combinations are shown in FIG. 26A and FIG. 26B. siRNA used to knock down JAK1 and JAK2 were: JAK1 siRNA Dharmacon #M-003145-02-0005; JAK2 siRNA Dharmacon #M-003146-02-0005. OTC and CPS1 mRNA expression was normalized to B2M. The assay was performed in triplicate in three donor hepatocyte cell lines: 371, 171, and 511A.
Cells were harvested after siRNA treatment for mRNA quantification. JAK1, OTC, and CPS1 mRNA levels were normalized to GUSB.

[2] = tested on: chromatin domain upstream of the OTC gene; assay: ATAC-seq of the OTC insulated neighborhood in inhibitor-treated hepatocytes; conditions: 17 hours of inhibitor treatment
Experimental: Hepatocytes were seeded overnight, then the serum and other factors were removed. After 2-3 hours, the cells were treated with the compound and incubated overnight. The cells were harvested and the nuclei were prepared for the transposition reaction. […] After 9-12 cycles of PCR amplification, libraries were sequenced on an Illumina HiSeq 2000. PCR was performed using barcoded primers with extension at 72° C. for 5 minutes, PCR, then the final PCR product was sequenced.
All obtained reads from each sample were trimmed using trim galore 0.4.1 requiring Phred score ≥20 and read length ≥30 for data analysis. The trimmed reads were mapped against the human genome (hg19 build) using Bowtie2 (version 2.2.9) with the parameters: -t -q -N 1 -L 25 -X 2000 no-mixed no-discordant. All unmapped reads, non-uniquely mapped reads and PCR duplicates were removed. All the ATAC-seq peaks were called using MACS2 with the parameters --nolambda -nomodel -q 0.01 --SPMR. The ATAC-seq signal was visualized in the UCSC genome browser. ATAC-seq peaks that were at least 2 kb away from annotated promoters (RefSeq, Ensemble and UCSC Known Gene databases combined) were selected as distal ATAC-seq peaks.
The ATAC-seq experiment was done in triplicate.

[3] = tested on: CPS1; assay: JAK1 inhibitor dose titration in hepatocytes of donors A and B, CPS1 mRNA normalized to B2M; format: cell-based, human; conditions: for CPS1 mRNA FC, Donor A / CPS1 mRNA FC, Donor B: normalized to B2M
Experimental: (§1) Next, two JAK1 inhibitors were tested at increasing concentrations in a dose titration assy. Hepatocytes from two different donors (A and B) were incubated with the various concentrations of upadacitinib or oclacitinib maleate and harvested for mRNA analysis. OTC and CPS1 mRNA were normalized to house keeping gene B2M gene expression.

[4] = tested on: OTC; assay: JAK1 inhibitor dose titration in hepatocytes of donors A and B, OTC mRNA normalized to B2M; format: cell-based, human; conditions: for OTC mRNA FC, Donor A / OTC mRNA FC, Donor B: normalized to B2M
Experimental: as §1

[5] = tested on: CPS1; assay: JAK inhibitors at 0.3 and 3 μM in primary human hepatocytes, CPS1 mRNA fold change; format: cell-based; conditions: fold change vs DMSO
Experimental: (§2) Additional small molecules that inhibit JAK1, JAK2, JAK3, or a combination of the JAK proteins were tested in primary human hepatocytes as described in Example 2. JAK inhibitors were tested in triplicate at 0.3 μM and 3 μM. The results are shown as the fold change (mRNA FC) in the mRNA levels of OTC and CPS1 genes after treatment compared to an untreated control (DMSO) and the standard deviation (SD).

[6] = tested on: OTC; assay: JAK inhibitors at 0.3 and 3 μM in primary human hepatocytes, OTC mRNA fold change; format: cell-based; conditions: fold change vs DMSO
Experimental: as §2

[7] = tested on: OTC; assay: siRNA SMARTpool transfection of primary human hepatocytes, OTC qPCR (Table 3B); format: cell-based; conditions: siRNA 10 nM, 48 hrs, vs non-targeting siRNA
Experimental: Primary human hepatocytes were reversed transfected with 6 pmol siRNA using RNAiMAX Reagent (ThermoFisher Cat No13778030) in 24 well format, 1 ul per well (for a final cone of 10 nM). The following morning, the medium was removed and replaced with Modified Maintenance Medium (see above) for an additional 24 hrs. The entire treatment lasted 48 hrs, at which point the medium was removed and replaced with RLT Buffer for RNA extraction (Qiagen RNeasy 96 QIAcube HT Kit Cat #74171). siRNAs were obtained from Dharmacon and are a pool of four siRNA duplex all designed to target distinct sites within the specific gene of interest (known as “SMARTpool”). They were tested against the control non-targeting siRNA D-001206-13-05.
Isolated RNA was processed for cDNA synthesis and qPCR as described above. Taqman assay used for OTC measurement: Hs00166892_ml

[8] = both donor cell lines (A and B)

STAT5A (DNA ATTTCTNAGAAA; target site or template, no part of the molecule; chemistry not given here)
OTC expression after knockdown in combination with JAK1 [1]: increased

oclacitinib maleate
newly accessible chromatin domain upstream of the OTC gene (ATAC-seq) [2]: newly accessible chromatin domain
CPS1 mRNA FC, Donor A ([3]; 0.1 uM): 1.61
CPS1 mRNA FC, Donor B ([3]; 0.1 uM): 4.60
CPS1 mRNA FC, Donor A ([3]; 0.3 uM): 2.37
CPS1 mRNA FC, Donor B ([3]; 0.3 uM): 4.50
CPS1 mRNA FC, Donor A ([3]; 1 uM): 3.12
CPS1 mRNA FC, Donor B ([3]; 1 uM): 3.34
CPS1 mRNA FC, Donor A ([3]; 3 uM): 4.82
CPS1 mRNA FC, Donor B ([3]; 3 uM): 2.57
CPS1 mRNA FC, Donor A ([3]; 10 uM): 5.99
CPS1 mRNA FC, Donor B ([3]; 10 uM): 1.90
CPS1 mRNA expression, dose titration [3, 8]: dose dependent increase
OTC mRNA FC, Donor A ([4]; 0.1 uM): 1.97
OTC mRNA FC, Donor B ([4]; 0.1 uM): 2.46
OTC mRNA FC, Donor A ([4]; 0.3 uM): 2.76
OTC mRNA FC, Donor B ([4]; 0.3 uM): 4.28
OTC mRNA FC, Donor A ([4]; 1 uM): 4.79
OTC mRNA FC, Donor B ([4]; 1 uM): 5.97
OTC mRNA FC, Donor A ([4]; 3 uM): 8.92
OTC mRNA FC, Donor B ([4]; 3 uM): 11.00
OTC mRNA FC, Donor A ([4]; 10 uM): 11.65
OTC mRNA FC, Donor B ([4]; 10 uM): 11.46
OTC mRNA expression, dose titration [4, 8]: dose dependent increase
CPS1 mRNA FC ([5]; 0.3 uM): 1
CPS1 mRNA FC ([5]; 3 uM): 1.69
OTC mRNA FC ([6]; 0.3 uM): 1.32
OTC mRNA FC ([6]; 3 uM): 3.14

SMAD3 (DNA YGTCTAGACA; siRNA; chemistry not given here; the letters are possibly those of the target site)
Max fold change in OTC [7]: 2.49 fold
